This passage reports IC50 and inhibition results from patent US8022091B2, “Triazole derivative” (Taisho Pharmaceutical Co., Ltd., priority 2006, dated 2011).

For the first test, the target named is T1, human Edg-1 (S1P1) (Homo sapiens, UniProt P21453).
T1 construct: expressed in transfected cells; host or cells: HEK-293
T1 sequence (P21453 whole entry): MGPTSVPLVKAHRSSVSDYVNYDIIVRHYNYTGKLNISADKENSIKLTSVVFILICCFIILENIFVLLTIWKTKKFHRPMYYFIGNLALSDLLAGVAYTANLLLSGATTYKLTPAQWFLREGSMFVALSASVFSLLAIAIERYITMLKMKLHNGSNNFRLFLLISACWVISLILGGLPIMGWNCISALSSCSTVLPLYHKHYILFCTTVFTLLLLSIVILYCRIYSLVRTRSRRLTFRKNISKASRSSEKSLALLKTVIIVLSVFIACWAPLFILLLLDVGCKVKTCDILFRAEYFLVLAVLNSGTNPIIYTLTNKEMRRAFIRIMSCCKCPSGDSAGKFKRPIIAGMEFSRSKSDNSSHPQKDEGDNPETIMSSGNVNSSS
As to the kind of experiment: S1P1 binding assay: inhibition of [33P]-S1P binding to membrane fraction of HEK-293 cells transferred with the human Edg-1 (S1P1) gene. As to conditions: [33P]-S1P 0.1 nM, human Edg-1 (S1P1) HEK-293 membrane fraction, 1 h at 30° C.; read-out: IC50 (concentration at which binding in the absence of the test compound was inhibited by 50%). The method in brief: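 With 0.1 nM [33P]-S1P and compound (10^−5M single point, or a concentration range for IC50) in 0.1% DMSO, membrane fractions from human Edg-1-expressing HEK-293 cells were treated for one hour at 30° C in 20 mM Tris-HCl pH 7.4 with NaF, deoxypyridoxine and BSA. Bound label was measured after filtration, with untransfected-cell background subtracted.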
As to `CCC(NS(=O)(=O)c1ccc2c(Cl)cccc2c1)c1nnc(Oc2cccc(N3CCN(C)CC3)c2)n1CC` (centres unmarked) [Compound 671], the IC50 is at most 10 nM.

On to `CCn1c(Oc2cccc(N3CCN(C)CC3)c2)nnc1[C@@H](C)NS(=O)(=O)c1ccc2c(c1)CCC2` [Compound 678], for which the IC50 was found to be 10.2 nM.

The test is the same for the next values; noted with them: test compound 10 μM; inhibition of [33P]-S1P binding, membrane fraction.
For the molecule `CCn1c(Oc2cccc(N3CCN(C)CC3)c2)nnc1[C@@H](C)NS(=O)(=O)c1ccc(-c2ccno2)s1` [Compound 598], the inhibition (usually the relative decrease from the control value, in per cent) at 10 µM was 89.5%.

As for `CCn1c(Oc2cccc(N3CCN(C)CC3)c2)nnc1[C@@H](C)NS(=O)(=O)Cc1cccc(Cl)c1` [Compound 599], the inhibition at 10 µM worked out at 80.6%.

For the molecule `CCn1c(Oc2cccc(N3CCN(C)CC3)c2)nnc1[C@@H](C)NS(=O)(=O)c1ccc(Br)cc1Br` [Compound 600], the inhibition at 10 µM is 100%.

In the case of `CCn1c(Oc2cccc(N3CCN(C)CC3)c2)nnc1[C@@H](C)NS(=O)(=O)c1ccc(F)c(C#N)c1` [Compound 601], the inhibition at 10 µM came to 100%.

As for `CCn1c(Oc2cccc(N3CCN(C)CC3)c2)nnc1[C@@H](C)NS(=O)(=O)c1cc(C)cc(C)c1` [Compound 602], the inhibition at 10 µM was found to be 107%.

Consider `CCn1c(Oc2cccc(N3CCN(C)CC3)c2)nnc1[C@@H](C)NS(=O)(=O)c1ccc(OC(F)F)cc1` [Compound 603], for which the inhibition at 10 µM turned out to be 107%.

Turning to `CCn1c(Oc2cccc(N3CCN(C)CC3)c2)nnc1[C@@H](C)NS(=O)(=O)c1cccc(OC(F)F)c1` [Compound 604], the inhibition at 10 µM came out at 109%.

Turning to `CCn1c(Oc2cccc(N3CCN(C)CC3)c2)nnc1[C@@H](C)NS(=O)(=O)c1c(F)cc(F)cc1Br` [Compound 605], the inhibition at 10 µM came to 83.4%.

For the molecule `CCn1c(Oc2cccc(N3CCN(C)CC3)c2)nnc1[C@@H](C)NS(=O)(=O)c1cc(F)cc(F)c1` [Compound 606], the inhibition at 10 µM is 108%.

As to `CCn1c(Oc2cccc(N3CCN(C)CC3)c2)nnc1[C@@H](C)NS(=O)(=O)c1cc(F)c(F)c(F)c1` [Compound 608], the inhibition at 10 µM was 109%.

`CCn1c(Oc2cccc(N3CCN(C)CC3)c2)nnc1[C@@H](C)NS(=O)(=O)c1ccc(F)cc1Br` [Compound 609]: the inhibition at 10 µM is 93.1%.

With `CCn1c(Oc2cccc(N3CCN(C)CC3)c2)nnc1[C@@H](C)NS(=O)(=O)c1ccc(C(F)(F)F)cc1Br` [Compound 610], the inhibition at 10 µM was 91.2%.

As for `CCn1c(Oc2cccc(N3CCN(C)CC3)c2)nnc1[C@@H](C)NS(=O)(=O)c1cc(C(F)(F)F)ccc1Br` [Compound 611], the inhibition at 10 µM was found to be 63.9%.

For `CCn1c(Oc2cccc(N3CCN(C)CC3)c2)nnc1[C@@H](C)NS(=O)(=O)c1ccc(C)c(F)c1` [Compound 612], the inhibition at 10 µM amounted to 114%.

Take `CCn1c(Oc2cccc(N3CCN(C)CC3)c2)nnc1[C@@H](C)NS(=O)(=O)c1ccc(F)cc1C` [Compound 613]: the inhibition at 10 µM amounted to 90.9%.

Regarding `CCn1c(Oc2cccc(N3CCN(C)CC3)c2)nnc1[C@@H](C)NS(=O)(=O)c1cc(Cl)ccc1F` [Compound 614], the inhibition at 10 µM came out at 77.8%.

In the case of `CCn1c(Oc2cccc(N3CCN(C)CC3)c2)nnc1[C@@H](C)NS(=O)(=O)c1ccc(Br)c(F)c1` [Compound 615], the inhibition at 10 µM came to 110%.

Consider `CCn1c(Oc2cccc(N3CCN(C)CC3)c2)nnc1[C@@H](C)NS(=O)(=O)c1ccc(Br)cc1Cl` [Compound 616], for which the inhibition at 10 µM stood at 99.9%.

With `CCn1c(Oc2cccc(N3CCN(C)CC3)c2)nnc1[C@@H](C)NS(=O)(=O)c1c(Cl)cc(Br)cc1Cl` [Compound 617], the inhibition at 10 µM came to 77.5%.

As to `CCn1c(Oc2cccc(N3CCN(C)CC3)c2)nnc1[C@@H](C)NS(=O)(=O)CCCOc1ccc(OC)cc1` [Compound 618], the inhibition at 10 µM was determined as 65.4%.

Turning to `CCn1c(Oc2cccc(N3CCN(C)CC3)c2)nnc1[C@@H](C)NS(=O)(=O)c1ccc(C)c(C)c1` [Compound 619], the inhibition at 10 µM stood at 114%.

In the case of `CCn1c(Oc2cccc(N3CCN(C)CC3)c2)nnc1[C@@H](C)NS(=O)(=O)c1cc(C)ccc1F` [Compound 620], the inhibition at 10 µM turned out to be 88.4%.

Consider `CCn1c(Oc2cccc(N3CCN(C)CC3)c2)nnc1[C@@H](C)NS(=O)(=O)c1cccc(Cl)c1F` [Compound 621], for which the inhibition at 10 µM was found to be 95.4%.

Consider `CCn1c(Oc2cccc(N3CCN(C)CC3)c2)nnc1[C@@H](C)NS(=O)(=O)c1ccc(F)cc1C(F)(F)F` [Compound 622], for which the inhibition at 10 µM came out at 58.9%.

For the molecule `CCn1c(Oc2cccc(N3CCN(C)CC3)c2)nnc1[C@@H](C)NS(=O)(=O)c1ccccc1OC` [Compound 626], the inhibition at 10 µM was found to be 61.1%.

`CCn1c(Oc2cccc(N3CCN(C)CC3)c2)nnc1[C@@H](C)NS(=O)(=O)CC1CCCCC1` [Compound 627]: the inhibition at 10 µM was 90%.

With `CCCCCCCCCCS(=O)(=O)N[C@H](C)c1nnc(Oc2cccc(N3CCN(C)CC3)c2)n1CC` [Compound 628], the inhibition at 10 µM was 64.4%.

As for `CCn1c(Oc2cccc(N3CCN(C)CC3)c2)nnc1[C@@H](C)NS(=O)(=O)c1cc(C)oc1C(F)(F)F` [Compound 629], the inhibition at 10 µM turned out to be 101%.

Regarding `CCn1c(Oc2cccc(N3CCN(C)CC3)c2)nnc1[C@@H](C)NS(=O)(=O)c1ccc2c(c1)OCCO2` [Compound 630], the inhibition at 10 µM is 107%.

`CCn1c(Oc2cccc(N3CCN(C)CC3)c2)nnc1[C@@H](C)NS(=O)(=O)c1sc(C)nc1C` [Compound 631]: the inhibition at 10 µM stood at 95.2%.

Regarding `CCn1c(Oc2cccc(N3CCN(C)CC3)c2)nnc1[C@@H](C)NS(=O)(=O)c1cccc2nsnc12` [Compound 632], the inhibition at 10 µM was found to be 59.9%.

As to `CCn1c(Oc2cccc(N3CCN(C)CC3)c2)nnc1[C@@H](C)NS(=O)(=O)c1ccc2nsnc2c1` [Compound 633], the inhibition at 10 µM was found to be 111%.

`CCn1c(Oc2cccc(N3CCN(C)CC3)c2)nnc1[C@@H](C)NS(=O)(=O)c1cccc2nonc12` [Compound 634]: the inhibition at 10 µM is 51%.

In the case of `CCn1c(Oc2cccc(N3CCN(C)CC3)c2)nnc1[C@@H](C)NS(=O)(=O)c1ccsc1` [Compound 635], the inhibition at 10 µM turned out to be 68.7%.

For the molecule `CCn1c(Oc2cccc(N3CCN(C)CC3)c2)nnc1[C@@H](C)NS(=O)(=O)c1ccc(-c2cnco2)s1` [Compound 636], the inhibition at 10 µM came out at 85.7%.

Turning to `CCn1c(Oc2cccc(N3CCN(C)CC3)c2)nnc1[C@@H](C)NS(=O)(=O)c1cnn(-c2ccccc2)c1C` [Compound 637], the inhibition at 10 µM was determined as 50.6%.

On to `CCn1c(Oc2cccc(N3CCN(C)CC3)c2)nnc1[C@@H](C)NS(=O)(=O)c1ccc(-c2ccnc(SC)n2)s1` [Compound 640], for which the inhibition at 10 µM worked out at 59.5%.

Turning to `CCn1c(Oc2cccc(N3CCN(C)CC3)c2)nnc1[C@@H](C)NS(=O)(=O)c1cc(C)sc1C` [Compound 641], the inhibition at 10 µM worked out at 85.2%.

In the case of `CCn1c(Oc2cccc(N3CCN(C)CC3)c2)nnc1[C@@H](C)NS(=O)(=O)c1ccc(OC)cc1OC` [Compound 642], the inhibition at 10 µM is 85.5%.

For `CCn1c(Oc2cccc(N3CCN(C)CC3)c2)nnc1[C@@H](C)NS(=O)(=O)c1ccc(C(F)(F)F)cc1Cl` [Compound 644], the inhibition at 10 µM amounted to 93%.

Regarding `CCn1c(Oc2cccc(N3CCN(C)CC3)c2)nnc1[C@@H](C)NS(=O)(=O)c1cccc(C(C)=O)c1` [Compound 647], the inhibition at 10 µM stood at 99%.

With `CCn1c(Oc2cccc(N3CCN(C)CC3)c2)nnc1[C@@H](C)NS(=O)(=O)c1ccc(F)c2ccccc12` [Compound 648], the inhibition at 10 µM was determined as 108%.

As for `CCOc1ccc(NC(C)=O)cc1S(=O)(=O)N[C@H](C)c1nnc(Oc2cccc(N3CCN(C)CC3)c2)n1CC` [Compound 649], the inhibition at 10 µM is 64.7%.

On to `CCc1ccc(OC)c(S(=O)(=O)N[C@H](C)c2nnc(Oc3cccc(N4CCN(C)CC4)c3)n2CC)c1` [Compound 652], for which the inhibition at 10 µM came out at 91.9%.

For `CCn1c(Oc2cccc(N3CCN(C)CC3)c2)nnc1[C@@H](C)NS(=O)(=O)c1ccc(Cl)c(S(N)(=O)=O)c1` [Compound 654], the inhibition at 10 µM came out at 71.7%.

For `CCn1c(Oc2cccc(N3CCN(C)CC3)c2)nnc1[C@@H](C)NS(=O)(=O)c1ccc(Br)c(C(F)(F)F)c1` [Compound 657], the inhibition at 10 µM was determined as 94.9%.

For the molecule `CCn1c(Oc2cccc(N3CCN(C)CC3)c2)nnc1[C@@H](C)NS(=O)(=O)c1cc(Br)cc(C(F)(F)F)c1` [Compound 658], the inhibition at 10 µM was found to be 80.4%.

On to `CCn1c(Oc2cccc(N3CCN(C)CC3)c2)nnc1[C@@H](C)NS(=O)(=O)c1csc2ccccc12` [Compound 662], for which the inhibition at 10 µM is 95.4%.

As for `CCn1c(Oc2cccc(N3CCN(C)CC3)c2)nnc1[C@@H](C)NS(=O)(=O)c1ccc2cc(C)ccc2c1` [Compound 668], the inhibition at 10 µM came out at 98.6%.

Consider `CCC(NS(=O)(=O)c1ccc2c(Cl)cccc2c1)c1nnc(Oc2cccc(N3CCN(C)CC3)c2)n1CC` (centres unmarked) [Compound 671], for which the inhibition at 10 µM was 101%.

On to `CCn1c(Oc2cccc(N3CCN(C)CC3)c2)nnc1[C@@H](C)NS(=O)(=O)c1ccc2c(c1)CCO2` [Compound 672], for which the inhibition at 10 µM is 103%.

In the case of `CCn1c(Oc2cccc(N3CCN(C)CC3)c2)nnc1[C@@H](C)NS(=O)(=O)c1ccc2c(c1)CCC(C)(C)O2` [Compound 673], the inhibition at 10 µM was determined as 62%.

Take `CCn1c(Oc2cccc(N3CCN(C)CC3)c2)nnc1[C@@H](C)NS(=O)(=O)c1ccc2c(c1)OCCCO2` [Compound 674]: the inhibition at 10 µM was determined as 97%.

As to `CCn1c(Oc2cccc(N3CCN(C)CC3)c2)nnc1[C@@H](C)NS(=O)(=O)c1ccc2c(c1)OCO2` [Compound 675], the inhibition at 10 µM stood at 96.6%.

Consider `CCn1c(Oc2cccc(N3CCN(C)CC3)c2)nnc1[C@@H](C)NS(=O)(=O)c1ccc2c(c1)C(C)(C)CCC2(C)C` [Compound 676], for which the inhibition at 10 µM is 92.6%.

As to `CCn1c(Oc2cccc(N3CCN(C)CC3)c2)nnc1[C@@H](C)NS(=O)(=O)c1ccc2c(c1)CCN2C(C)=O` [Compound 677], the inhibition at 10 µM was determined as 60.8%.

Regarding `CCn1c(Oc2cccc(N3CCN(C)CC3)c2)nnc1[C@@H](C)NS(=O)(=O)c1ccc2c(c1)CCC2` [Compound 678], the inhibition at 10 µM was found to be 97.4%.
